The values that follow come from patent US20150158870A1, “POLYMORPHS OF 7-(TERT-BUTYL-D9)-3-(2,5-DIFLUOROPHENYL)-6-((1-METHYL-1H-1,2,4-TRIAZOL-5-YL)METHOXY)-[1,2,4]TRIAZOLO[4,3-B]PYRIDAZINE” (Concert Pharmaceuticals Inc., priority 2012, published 2015).

Common to all, as to type: physicochemical
Series [1] in a line: Dynamic Vapor Sorption (DVS) analysis. As to conditions: for weight gained in DVS analysis: between 0-90% relative humidity, 25° C. The protocol:
Dynamic Vapor Sorption (DVS). DVS experiments were conducted on a Surface Measurement Systems DVS-HT at 25° C. The instrument was operated in step mode and the relative humidity was increased in 10% RH increments from 40% RH to 90% RH, then decreased from 90% RH to 0% RH, then increased from 0% RH to 90% RH, then decreased from 90% RH to 0% RH. An extra step at 75% RH was included in each cycle. The mass equilibrium criterion was set at 0.005% change in mass over time (dm/dt) prior to each humidity level. A minimum step time of 10 minutes and a maximum step time of 240 minutes were specified.

Series [2] is described as follows: Physical (crystal form) stability on exposure to ambient conditions, relative humidity or elevated pressure. As to conditions: for crystal form change on exposure to 97% relative humidity: 97% relative humidity for 5 days; for crystal form change on exposure to 75% relative humidity: 75% relative humidity for five days. An excerpt: (§1) Form 1 is a non-solvated, non-hygroscopic crystal.
Form 3 is a non-solvated and non-hygroscopic crystal.
Form 4 is a non-solvated crystal.

The nature of series [3]: Milling at -196° C. and recrystallization.
Source text: as §1

A short description of series [4]: Stability of Form 1 to physical and chemical manipulation (Example 3). The protocol:
Form 1 is stable to lyophilization when initially dissolved in a 50:50 mixture of DMC:ACN.
A saturated solution of Form 1 in any of MeOH, ACN, acetone, DCM, TFE, or 1,4-dioxane is stable to evaporation over 3.5 hours at 30° C. under reduced pressure.
A saturated solution of Form 1 in any of MeOH, THF, MeOAc, Toluene, or EtOH in 1 vol % Heptane is stable after heating to 50° C., filtering the solution and rapidly cooling to 5° C.
A suspension of Form 1 in any of DMSO, n-BuOH, 2-Methoxyethanol, IPA, EtOH, Nitromethane, DMC, n-PrOH, ACN, Acetone, 2-Butanone, EtOAc, THF, EtOH in 5 vol % Toluene, MeOAc, or EtOH in 5 vol % MeOH is stable after cycling temperature between 5 and 40° C. for >48 hrs with constant stirring.
Form 1 was also stable to exposure to 75% relative humidity or to high pressure (10 kPSi).
A saturated solution of Form 1 in any of n-PrOH, ACN, Acetone, 2-Butanone, EtOAc, THF, EtOH in 5 vol % Toluene, MeOAc, or EtOH in 5 vol % MeOH at 25° C., is stable after filtering the solution and then cooling the solution to 5° C. at a rate of 1° C./min.
A saturated solution of Form 1 in any of TFE, 2-Methoxyethanol, IPA, EtOH, Heptane, 4-Methyl-2-pentanone, cyclohexane, ACN, Acetone, 2-Butanone, EtOAc, THF, or EtOH in 5 vol % Toluene is stable to evaporation over 2-28 days under ambient conditions.

The structures appear in SMILES notation.

As to `[2H]C([2H])([2H])C(c1cc2nnc(-c3cc(F)ccc3F)n2nc1OCc1ncnn1C)(C([2H])([2H])[2H])C([2H])([2H])[2H]` [Form 3, 7-(tert-Butyl-d9)-3-(2,5-difluorophenyl)-6-((1-methyl-1H-1,2,4-triazol-5-yl)methoxy)-[1,2,4]triazolo[4,3-b]pyridazine], in series [1], the “hygroscopicity of the crystal” value is reported as “non-hygroscopic” and the “weight gained in DVS analysis” value is below 0.25 % wt. Moreover, the “crystal form change on exposure to 97% relative humidity” value in series [2] was “does not undergo a crystal form change”. Further, the “time physically stable at ambient conditions” value in series [2] (ambient conditions) is listed as “at least 2 weeks”.

For `[2H]C([2H])([2H])C(c1cc2nnc(-c3cc(F)ccc3F)n2nc1OCc1ncnn1C)(C([2H])([2H])[2H])C([2H])([2H])[2H]` [Form 1, 7-(tert-Butyl-d9)-3-(2,5-difluorophenyl)-6-((1-methyl-1H-1,2,4-triazol-5-yl)methoxy)-[1,2,4]triazolo[4,3-b]pyridazine], in series [1], the “hygroscopicity of the crystal” value is reported as “non-hygroscopic” and the “weight gained in DVS analysis” value was below 0.25 % wt. The “time to recrystallize back to Form 1 after milling” value in series [3] (after becoming amorphous by milling at -196° C. for 2.5 hours) is at most 30 min. Also, the “solid form after milling” value in series [3] (milled at -196° C. for 2.5 hours) is given as “becomes amorphous”. Moreover, in series [4] (75% relative humidity), the “crystal form stability to exposure to water vapor” value is on record as “stable”. The “crystal form stability to pressing” value in series [4] (high pressure (10 kPSi)) is “stable”. Moreover, the “crystal form stability to lyophilization” value in series [4] (initially dissolved in a 50:50 mixture of DMC:ACN) is “stable”. Moreover, the “crystal form stability to controlled cooling” value in series [4] (saturated solution at 25° C. in any of n-PrOH, ACN, Acetone, 2-Butanone, EtOAc, THF, EtOH in 5 vol % Toluene, MeOAc, EtOH in 5 vol % MeOH, filtered, cooled to 5° C. at 1° C./min) was “stable”. Further, the “crystal form stability to fast evaporation” value in series [4] (saturated solution in any of MeOH, ACN, acetone, DCM, TFE or 1,4-dioxane, evaporation over 3.5 hours at 30° C. under reduced pressure) is listed as “stable”. In series [4] (saturated solution in any of MeOH, THF, MeOAc, Toluene or EtOH in 1 vol % Heptane, heated to 50° C., filtered, rapidly cooled to 5° C.), the “crystal form stability to rapid cooling” value is on record as “stable”. In addition, in series [4] (saturated solution in any of TFE, 2-Methoxyethanol, IPA, EtOH, Heptane, 4-Methyl-2-pentanone, cyclohexane, ACN, Acetone, 2-Butanone, EtOAc, THF, EtOH in 5 vol % Toluene, evaporation over 2-28 days under ambient conditions), the “crystal form stability to slow evaporation” value was “stable”. The “crystal form stability to slurry equilibration” value in series [4] (suspension in any of DMSO, n-BuOH, 2-Methoxyethanol, IPA, EtOH, Nitromethane, DMC, n-PrOH, ACN, Acetone, 2-Butanone, EtOAc, THF, EtOH in 5 vol % Toluene, MeOAc, EtOH in 5 vol % MeOH, cycling 5-40° C. for >48 hrs with stirring) is “stable”. In series [2], the “crystal form change on exposure to 75% relative humidity” value was “does not undergo a crystal form change” and the “crystal form change on exposure to 97% relative humidity” value is listed as “partially converts to Form 2”. In addition, the “physical stability at ambient conditions” value in series [2] (ambient conditions, no duration stated) is “physically stable”. Further, the “crystal form change on exposure to elevated pressures” value in series [2] (elevated pressures (~0.35 GPa) for 3 days) is recorded as “does not undergo a crystal form change”.

Consider `[2H]C([2H])([2H])C(c1cc2nnc(-c3cc(F)ccc3F)n2nc1OCc1ncnn1C)(C([2H])([2H])[2H])C([2H])([2H])[2H]` [Form 4, 7-(tert-Butyl-d9)-3-(2,5-difluorophenyl)-6-((1-methyl-1H-1,2,4-triazol-5-yl)methoxy)-[1,2,4]triazolo[4,3-b]pyridazine], for which the “crystal form change on exposure to 75% relative humidity” value in series [2] is reported as “does not undergo a crystal form change”. In addition, the “time physically stable at ambient conditions” value in series [2] (ambient conditions) is “at least 2 weeks”.
